From patent US12049483B2, “Selective and noncovalent inhibitors of oncogenic RAS mutants” (New York University, priority 2020, dated 2024)

Assays:
[1] = tested on: KRAS mutant and control cell lines; assay: Cell proliferation assay of dox-inducible monobody-expressing cell lines; format: cell-based; settings: KRAS(G12C) (H358 and H23) and KRAS(G12V) (PATU8902 and H441) cell lines
Procedure: Cell proliferation assay. […] Cells were then cultured in the presence of 1 μg/mL doxycycline for the entire duration of experiment (7-8 days) and subcultured into a new 12 well or 24 well plate every 2 days. […] The mixed culture was sampled periodically and the ratio between monobody expressing cells (mVenus and GFP positive) and non-expressing cells was determined using flow cytometry analysis (FIG. 11).

[2] = target: KRAS(G12C) (Homo sapiens, UniProt P01116, G12C); assay: Competitive binding assay of 12VC1 against known interaction partners of RAS (yeast display); set-up: KRAS4B residues 1-174 containing G12C, G12V, G12D, G13D, Q61L, WT; His6 (N, cleaved yes); Avi-tag (N, cleaved yes); made in house; host or cells: E. coli BL21(DE3)
Procedure: After four rounds of phage display library selection using biotinylated KRAS(G12C) at concentrations of 100 nM, 100 nM, 50 nM and 50 nM, the genes encoding monobodies from the enriched phage pool were transferred to a yeast display vector, which was used to construct yeast-display libraries. The yeast display libraries were sorted using a Bio-Rad S3e fluorescence-activated cell sorter or a [sequence] II cell sorter (BD Biosciences). […] The expression of monobodies on the surface of yeast cells were detected using mouse anti-VS and anti-mouse IgG-FITC conjugate. Target binding was detected with neutravidin Dylight650. Yeast cells were analyzed using an iQue flow cytometer (Sartorius).

[3] = target: T1, KRAS(G12D) (Homo sapiens, UniProt P01116, G12D); assay: Yeast display binding titration, KRAS(G12D); settings: GTPγS and GDP bound states
T1 construct: KRAS4B residues 1-174 containing G12C, G12V, G12D, G13D, Q61L, WT; made in house; host or cells: E. coli BL21(DE3) with pBirA
Procedure: (§1) Nucleotide exchange of RAS. Purified RAS proteins used in binding experiment and crystallization were prepared by diluting stock protein (typically containing 20-250 μM RAS) 25 times with 20 mM Tris-Cl buffer pH 7.5 containing 5 mM EDTA, 0.1 mM DTT and 1 mM final concentration of a nucleotide (GDP or GTPγS). Samples were incubated at 30° C. for 30 minutes. MgCl2 was then added to the sample at a final concentration of 20 mM and the solution was further incubated on ice for at least 5 minutes prior to use.
(§2) Monobody development. General procedures for the development of monobodies against purified protein targets have been described previously. After four rounds of phage display library selection using biotinylated KRAS(G12C) at concentrations of 100 nM, 100 nM, 50 nM and 50 nM, the genes encoding monobodies from the enriched phage pool were transferred to a yeast display vector, which was used to construct yeast-display libraries. The yeast display libraries were sorted using a Bio-Rad S3e fluorescence-activated cell sorter or a […] II cell sorter (BD Biosciences). […] Single clones were then screened for selective binding to RAS mutants. The expression of monobodies on the surface of yeast cells were detected using mouse anti-VS and anti-mouse IgG-FITC conjugate. Target binding was detected with neutravidin Dylight650. Yeast cells were analyzed using an iQue flow cytometer (Sartorius). […]

[4] = target: T2, KRAS(G13D) (Homo sapiens, UniProt P01116, G13D); assay: Yeast display binding titration, KRAS(G13D); settings: GTPγS and GDP bound states
T2 construct: KRAS4B residues 1-174 containing G12C, G12V, G12D, G13D, Q61L, WT; made in house; host or cells: E. coli BL21(DE3) with pBirA
Procedure: as §1, §2

[5] = tested on: ERK activation (pERK); assay: ERK activation in dox-inducible monobody-expressing cell lines; format: cell-based
Procedure: Cell signaling assay and quantification of immunoblots. Cells were lysed in RIPA buffer (50 mM Tris-Cl pH 8, 150 mM NaCl, 5 mM EDTA pH8, 0.1% SDS, 1% NP40) supplemented with protease inhibitors (Roche; 5892991001) and phosphatase inhibitors (54 mM β-glycerophosphate, 10 mM NaF, 1 mM sodium vanadate) for 15 minutes on ice, and centrifuged at 15,000 g for 15 minutes. The supernatant was collected and measured for total protein amount using BCA assay (Thermo Scientific; 23227). Lysate (7-20 μg per well) was loaded onto a pre-cast SDS gel (BioRad; 456-1096) followed by electrophoresis. The proteins were then transferred from the gel to a low fluorescence background PVDF membrane (Millipore; IPFL00010) or regular PVDF membrane (Millipore; ISEQ00010) depending on whether fluorescence or chemiluminescence detection was performed. Phospho-ERK was detected using a rabbit anti-pERK antibody (Cell Signaling; 9101S) and total ERK was detected using a rabbit anti-ERK antibody (Cell Signaling; 9102S). Monobody expression was detected using mouse anti-Flag antibody (Sigma; F3165) or anti-HA tag antibody (BioLegend; 901516). Loading control was detected with primary antibody against tubulin-alpha (Thermo Scientific, 62204) or against cytochrome oxidase (COX IV) (Li-Cor, 926-42214). The total RAS level was detected using a pan-RAS antibody (SCBT, sc-166691). The KRAS level was determined using a KRAS-specific antibody (Sigma, WH0003845M1). For fluorescence detection of immunoblots, the membranes were imaged with a Licor Odyssey Clx imager (Li-Cor Bioscience) using IRDye anti-Rabbit 800CW and anti-Mouse 680LT (Li-Cor Bioscience, 926-32211 and 926-68020, respectively) as secondary antibodies. […] Band intensities of western blot were analyzed with Image Studio Lite version 5.2 (Li-Cor Bioscience). To quantify protein abundance in the degradation experiment, the intensities of pERK, RAS, KRAS, and Flag/HA tag bands were first normalized against the loading control of the perspective blot, which were either tubulin-α, COX IV or total ERK, followed by subsequent normalization to the zero time point. […]

Sequence: VSSVPTKLEVVAATPTSLLISWDAPAVTVFFYVITYGETGHGVGAFQAFKVPGSKSTATISGLKPGVDYTITVYARGYSKQGPYKPSPISINYRT [12VC1]
- proliferation [1]: potently inhibited
- competition with RAF1-RBD for binding to RAS [2]: competed
- binding [3]: no binding
- binding [4]: no binding
- ERK activation in H358 cells ([5]; H358, after 24 and 48 hours, dox-induced expression or ARS1620 treatment): effectively inhibited
- ERK activation ([5]; KRAS(G12C) (H358 and H23) and KRAS(G12V) (PATU8902 and H441) cell lines, dox-induced expression): potently inhibited
